Consider one compound from publication PMC6934184, “Selective DNA-PKcs inhibition extends the therapeutic index of localized radiotherapy and chemotherapy” (The Journal of Clinical Investigation, 2019).

A word on the inhibition: it is the relative decrease from the control value, in per cent.

The target in this test is T1, ROCK1 (Homo sapiens, UniProt Q13464).
T1 construct: purchased Thermo Fisher Scientific (Life Technologies) SelectScreen
Nature of the test: SelectScreen Z'LYTE. It is filed as biochemical. In short, it runs like this: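 NU5455 was profiled across the SelectScreen Broad panel of kinase activity and binding assays. Z'LYTE reactions such as CSF1R ran at apparent Km ATP, while the Adapta CAMK1 assay used ATP listed as 10. Values are given as percent.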

T1 sequence (Q13464 whole entry): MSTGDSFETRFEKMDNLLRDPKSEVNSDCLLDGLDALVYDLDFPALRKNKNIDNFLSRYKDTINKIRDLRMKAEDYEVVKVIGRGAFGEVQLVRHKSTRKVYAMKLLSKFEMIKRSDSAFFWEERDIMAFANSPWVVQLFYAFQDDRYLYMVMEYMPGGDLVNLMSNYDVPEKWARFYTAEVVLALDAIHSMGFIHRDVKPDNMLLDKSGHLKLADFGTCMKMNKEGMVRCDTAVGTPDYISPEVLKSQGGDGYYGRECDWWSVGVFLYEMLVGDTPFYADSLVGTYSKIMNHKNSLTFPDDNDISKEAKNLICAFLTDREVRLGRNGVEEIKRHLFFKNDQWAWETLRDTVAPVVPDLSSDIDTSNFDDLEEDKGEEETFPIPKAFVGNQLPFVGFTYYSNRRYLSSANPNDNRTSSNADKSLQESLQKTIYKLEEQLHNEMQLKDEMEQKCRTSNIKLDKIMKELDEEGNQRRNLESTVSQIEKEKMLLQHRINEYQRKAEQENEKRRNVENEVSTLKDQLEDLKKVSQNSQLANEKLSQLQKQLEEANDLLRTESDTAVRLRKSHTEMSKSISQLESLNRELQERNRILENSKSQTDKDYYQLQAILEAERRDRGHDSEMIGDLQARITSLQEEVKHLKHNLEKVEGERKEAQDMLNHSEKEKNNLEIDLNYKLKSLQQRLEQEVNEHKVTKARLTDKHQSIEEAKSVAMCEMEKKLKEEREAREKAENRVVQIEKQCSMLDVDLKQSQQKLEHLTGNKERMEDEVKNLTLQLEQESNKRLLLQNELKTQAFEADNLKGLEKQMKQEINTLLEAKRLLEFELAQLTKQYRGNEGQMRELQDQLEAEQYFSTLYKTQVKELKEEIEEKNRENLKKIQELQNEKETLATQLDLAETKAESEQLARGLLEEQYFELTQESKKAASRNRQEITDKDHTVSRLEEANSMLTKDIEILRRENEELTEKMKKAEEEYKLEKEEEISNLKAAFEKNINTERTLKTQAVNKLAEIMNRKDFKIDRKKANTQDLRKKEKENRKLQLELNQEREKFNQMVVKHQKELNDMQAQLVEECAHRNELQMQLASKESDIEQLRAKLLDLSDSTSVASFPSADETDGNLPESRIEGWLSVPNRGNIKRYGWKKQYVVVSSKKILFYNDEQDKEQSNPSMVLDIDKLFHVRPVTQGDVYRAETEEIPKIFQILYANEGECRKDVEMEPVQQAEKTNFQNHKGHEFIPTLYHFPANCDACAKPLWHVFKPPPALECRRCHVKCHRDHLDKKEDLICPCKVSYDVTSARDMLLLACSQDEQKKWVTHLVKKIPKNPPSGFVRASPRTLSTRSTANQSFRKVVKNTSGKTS

Turning to `CN(C(=O)CN1CCOCC1)c1ccc2sc3c(-c4cccc5c(=O)cc(N6CC7CCC(C6)O7)oc45)cccc3c2c1` [NU5455], the inhibition at 1 µM was -9.5%.
